This is an account of results in paper PMC6599521 (Biochemical pharmacology, 2019).

Read-outs that look alike come from different tables or passages of the source.

The target of data set [1] is T1, HCN1 channels (Mus musculus, UniProt O88704). The data set can be described thus: Additivity/competition of ligands with 3 μM DTB-P on HCN1 gating. It is filed as cell-based, murine. Conditions: increasing ligand concentrations plus 3 μM DTB-P.
Another data set concerns the target murine HCN1 channels (Mus musculus, UniProt O88704). It is filed as cell-based. Conditions: for Inverse agonist behavior on HCN1 gating (in words): ligand alone; for IC50 (in words): no clear inflection in the concentration response curve, omitted from Figure 4B; for ΔV1/2: paired experiments.
For data set [2] the following is noted: cited from earlier work.
The target in data set [3] is T1, HCN1 channels. The data set can be described thus: Gating model. Conditions: for Fold Change of closed state association constant, phenol vs cyclohexanol / Fold Change of open state association constant, phenol vs cyclohexanol / Association constant to closed channels (KC, QC, JC) / Association constant to open channels (KO, QO, JO): common site model S=4; for Association constant to closed channels (KC, QC, JC) / Association constant to open channels (KO, QO, JO): constants and errors divided by 10^4. It is filed as cell-based, murine.

Data set [4] has as its system chimeric mu opiate (μOR-Gqi5) receptors. Conditions: up to 100 μM; cited from earlier work.
Data set [5] relates to G-protein coupled inwardly rectifying K+ channels (GIRKs). The settings on record: in vitro; cited from earlier work.
For data set [6], the system named is mouse peripheral nerve injury neuropathic pain models. Conditions: cited from earlier work.
The next data set deals with α3β glycine receptors. Conditions: cited from earlier work.
In the next data set the test system is GABAA receptors. Conditions: cited from earlier work.
Where [7] appears, read: Hill fit maximal shift of activation midpoint, mean ± SD.

Chain of murine HCN1 channels (O88704 whole entry): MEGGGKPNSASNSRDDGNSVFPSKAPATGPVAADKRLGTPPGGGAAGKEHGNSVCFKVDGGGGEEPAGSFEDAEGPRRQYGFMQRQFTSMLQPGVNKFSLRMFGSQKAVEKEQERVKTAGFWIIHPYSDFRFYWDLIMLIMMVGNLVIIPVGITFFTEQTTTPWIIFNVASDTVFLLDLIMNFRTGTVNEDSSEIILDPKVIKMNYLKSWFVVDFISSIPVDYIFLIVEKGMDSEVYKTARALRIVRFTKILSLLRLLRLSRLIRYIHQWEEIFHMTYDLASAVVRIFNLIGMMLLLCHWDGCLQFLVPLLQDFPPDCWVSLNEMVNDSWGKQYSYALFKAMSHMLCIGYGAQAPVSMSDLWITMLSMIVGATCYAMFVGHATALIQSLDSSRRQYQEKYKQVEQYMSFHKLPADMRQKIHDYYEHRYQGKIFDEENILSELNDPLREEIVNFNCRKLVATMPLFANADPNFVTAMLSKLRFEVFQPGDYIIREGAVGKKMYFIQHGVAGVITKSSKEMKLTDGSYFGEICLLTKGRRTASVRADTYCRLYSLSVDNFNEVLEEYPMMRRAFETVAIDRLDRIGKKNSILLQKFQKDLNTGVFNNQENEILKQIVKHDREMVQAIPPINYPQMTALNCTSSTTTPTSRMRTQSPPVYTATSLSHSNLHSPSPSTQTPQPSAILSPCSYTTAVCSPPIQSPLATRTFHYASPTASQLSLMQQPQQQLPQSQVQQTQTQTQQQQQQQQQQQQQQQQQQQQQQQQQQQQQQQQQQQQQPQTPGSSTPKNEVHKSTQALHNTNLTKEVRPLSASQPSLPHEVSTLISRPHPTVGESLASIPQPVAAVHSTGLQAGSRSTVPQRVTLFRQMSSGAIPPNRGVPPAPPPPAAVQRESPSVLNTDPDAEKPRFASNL
T1 sequence (O88704 whole entry): as above

In general, IC50 refers to the concentration that gives 50% inhibition. Higher therefore signals a need for much substance. Regarding `CCC1CCCC(CC)C1O` (stereo not drawn) [DE-CH, 2,6-di-ethyl cyclohexanol], the “Behavior in the presence of 3 μM DTB-P (in words)” value on HCN1 channels [1] is “neither additivity nor competition”. Besides, at murine HCN1 channels, the IC50 was determined as 3000 ± 723 µM, the “Inverse agonist behavior on HCN1 gating (in words)” value (“Inverse agonist behavior” for short) is listed as “only weakly effective as an inverse agonist” and the “IC50 (in words)” value is listed as “ill-defined”.
In the case of `CCc1cccc(CC)c1O` [DE-P, 2,6-di-ethyl phenol], at murine HCN1 channels, the “Maximal efficacy lower than the maximal effect of DIP-P and DTB-P” value is ~ 2 fold; the “Inverse agonist behavior” value is listed as “partial inverse agonist”. The molecule further returned a ΔV1/2 at murine HCN1 channels (100 μM, n = 8) of −21.6 mV. The ΔV1/2 at murine HCN1 channels (300 μM, n = 9) was −21.2 mV. Besides, on murine HCN1 channels (setting [7]), the ΔV1/2 max is recorded as −22.1 ± 1.0 mV. Further, the “h (Hill coefficient)” value at murine HCN1 channels (Hill fit, mean ± SD) amounted to 1.95 ± 0.44. The molecule further came in with an IC50 at murine HCN1 channels (IC50, Hill fit of ΔV1/2 vs concentration, all parameters free, mean ± SD) of 25.1 ± 2.7 µM. In addition, the Aqueous solubility limit in data set [2] (ref https://comptox.epa.gov/dashboard DTXSID5061401) is reported as ~ 10 mM.
Turning to `CCc1cccc(CC)c1N=C=O` [DE-PIC, 2,6-diethyl phenyl-isocyanate], the “Inverse agonist behavior” value at murine HCN1 channels was “effective”.
In the case of `CC(C)C1CCCC(C(C)C)C1O` (stereo not drawn) [DIP-CH, 2,6-di-iso-propyl cyclohexanol], on HCN1 channels [3], the “Fold Change of closed state association constant, phenol vs cyclohexanol” value is listed as 3.8 and the “Fold Change of open state association constant, phenol vs cyclohexanol” value is 1.8. Moreover, the “Behavior in the presence of 3 μM DTB-P (in words)” value on HCN1 channels [1] is reported as “partial inverse agonists”. This molecule displayed an IC50 against murine HCN1 channels of 35 ± 21 µM. Further, on murine HCN1 channels (setting [7]), the ΔV1/2 max is listed as −18.9 ± 3.4 mV. In addition, on murine HCN1 channels (Hill fit, mean ± SD), the “h (Hill coefficient)” value is 0.76 ± 0.19.
Turning to `CC(C)c1cccc(C(C)C)c1O` [DIP-P, 2,6-di-iso-propyl phenol, reference compound], the “Effect on DAMGO-evoked currents generated by μOR-Gqi5 receptors” value in data set [4] was “inhibit”. Moreover, the “Direct effect on GIRKs” value in [5] is “no direct effect”. Also, in [6], the Anti-hyperalgesia result was “mechanical and thermal anti-hyperalgesia”. Further, the “Behavior in the presence of 3 μM DTB-P (in words)” value at HCN1 channels [1] is “second full inverse”. Also, at murine HCN1 channels, the “Shift in the V1/2 of HCN1 gating” value is ~ −40 mV, the “h (Hill coefficient)” value stood at 0.85 ± 0.11 and the ΔV1/2 max is reported as −39.8 ± 2.3 mV. Moreover, on murine HCN1 channels (IC50), 5.8 ± 1.2 µM corresponded to half-maximal inhibition (IC50). For the same molecule, the “Increase of solubility by 2-hydroxypropyl-β-cyclodextrin (HPβCD)” value in [2] is given as no less than 200 fold.
Consider `CC(C)c1cccc(C(C)C)c1F` [DIP-PF, 2,6-di-iso-propyl phenyl-fluorine], for which the IC50 against murine HCN1 channels came to 267 ± 24 µM. For the same molecule, the “Destabilization of association on replacing OH with F” value at murine HCN1 channels (from observed IC50 ratio) turned out to be 2.3 kcal/mol; at murine HCN1 channels (from partition-corrected IC50 ratio), 4.5 kcal/mol. Moreover, the “Shift in IC50 on replacing OH with F” value is 46 fold at murine HCN1 channels (ratio of observed aqueous IC50s of DIP-P and DIP-PF); 1,870 fold on murine HCN1 channels (ratio of partition-corrected IC50s of DIP-P and DIP-PF).
Turning to `CC1CCCC(C)C1O` (stereo not drawn) [DM-CH, 2,6-di-methyl cyclohexanol], the “IC50 (in words)” value against murine HCN1 channels is reported as “ill-defined”.
Regarding `Cc1cccc(C)c1O` [DM-P, 2,6-di-methyl phenol], on murine HCN1 channels, the “Inverse agonist behavior” value was “ineffective” and the “IC50 (in words)” value is “ill-defined”.
The matching figures for `Cc1cccc(C)c1N=C=O` [DM-PIC, 2,6-di-methyl phenyl-isocyanate]: “ineffective” and “ill-defined”.
As to `Cc1cccc(C)c1S` [DM-PT, 2,6-di-methyl phenyl-thiol], the “Inverse agonist behavior” value on murine HCN1 channels is reported as “clear inverse agonist activity”.
With `CCC(C)C1CCCC(C(C)CC)C1O` (stereo not drawn) [DSB-CH, 2,6-di-sec-butyl cyclohexanol], on HCN1 channels [3], the “Association constant to closed channels (KC, QC, JC)” value is given as “no effect” and the “Association constant to open channels (KO, QO, JO)” value was “no effect”. Further, on murine HCN1 channels, the “IC50 (in words)” value is given as “ill-defined”.
Consider `CCC(C)c1cccc(C(C)CC)c1O` (stereo not drawn) [DSB-P, 2,6-di-sec-butyl phenol], for which the “Jc^I closed state association constant” value on HCN1 channels [3] (common site model S=4, fit of data without and with 3 μM DTB-P, not scaled) is listed as 3,696 ± 2,948. For the same molecule, the “Behavior in the presence of 3 μM DTB-P (in words)” value at HCN1 channels [1] is reported as “low affinity full inverse agonist”.
For the molecule `CC(C)(C)C1CCCC(C(C)(C)C)C1O` (stereo not drawn) [DTB-CH, 2,6-di-tert-butyl cycloxhexanol], on HCN1 channels [3], the “Fold Change of closed state association constant, phenol vs cyclohexanol” value is 5.4; the “Fold Change of open state association constant, phenol vs cyclohexanol” value came out at 1.8; the “Association constant to closed channels (KC, QC, JC)” value was 4.6 ± 2.0; the “Association constant to open channels (KO, QO, JO)” value is 3.1 ± 1.5. In addition, the “Behavior in the presence of 3 μM DTB-P (in words)” value on HCN1 channels [1] is “partial inverse agonists”. Also, at murine HCN1 channels (setting [7]), the ΔV1/2 max is listed as −9.9 ± 1.5 mV. At murine HCN1 channels (Hill fit of ΔV1/2 vs concentration, all parameters free, mean ± SD), this molecule had an IC50 of 11.4 ± 4.2 µM. For the same molecule, the “h (Hill coefficient)” value on murine HCN1 channels (Hill fit, mean ± SD) was found to be 1.28 ± 0.47.
With `CC(C)(C)c1cccc(C(C)(C)C)c1O` [DTB-P, 2,6-di-tert-butyl phenol], the “Effect on open channel probability (Po) of α3β glycine receptors” value in the data set on α3β glycine receptors is listed as “increases open channel probability”. Further, the Anti-hyperalgesia entry in [6] is “mechanical and thermal anti-hyperalgesia”. In the data set on GABAA receptors, the “Activity at GABAA receptors” value is given as “minimal activity”. The same molecule showed an IC50 at murine HCN1 channels of 4.8 ± 0.8 µM. Moreover, the ΔV1/2 max on murine HCN1 channels (setting [7]) is listed as −42.4 ± 2.8 mV. Further, the “h (Hill coefficient)” value at murine HCN1 channels (Hill fit, mean ± SD) turned out to be 0.97 ± 0.13. Besides, the “Shift in the V1/2 of HCN1 gating” value at murine HCN1 channels (at the highest concentrations) is ~ −40 mV. Also, in data set [2], the “Increase of solubility by 2-hydroxypropyl-β-cyclodextrin (HPβCD)” value is no less than 200 fold.
